Where two headings read alike, the source gives them in different places.
Molecular target: T1, CRF1 receptors (Homo sapiens, UniProt P34998)
T1 construct: endogenous in cells; host or cells: IMR-32 cells, transformed with 2.5 µM 5'-bromo-2'-deoxyuridine for 10 days; membrane preparation
T1 sequence (P34998 24-415): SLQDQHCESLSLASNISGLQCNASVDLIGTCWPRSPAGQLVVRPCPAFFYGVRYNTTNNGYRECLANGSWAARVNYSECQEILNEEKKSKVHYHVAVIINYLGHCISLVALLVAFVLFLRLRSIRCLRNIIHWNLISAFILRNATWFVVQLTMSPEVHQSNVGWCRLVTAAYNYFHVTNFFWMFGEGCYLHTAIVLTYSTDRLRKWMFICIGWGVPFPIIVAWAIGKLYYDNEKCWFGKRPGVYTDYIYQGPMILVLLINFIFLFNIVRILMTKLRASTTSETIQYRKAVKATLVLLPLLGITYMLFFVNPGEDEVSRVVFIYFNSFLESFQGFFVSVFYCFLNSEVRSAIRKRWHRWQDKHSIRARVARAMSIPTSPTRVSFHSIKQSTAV
Experiment: CRF1 receptor radioligand binding assay ([125I]-oCRF competition, IMR-32 cell membranes)
Outline: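 Buffer: Tris pH 7.2 with MgCl2, BSA, Triton X-100, aprotinin, leupeptin; reaction stopped with ice-cold wash and filtered. Nonspecific binding set with 10 μM oCRF.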

[1] = IMR-32 cell membranes, [125I]-oCRF 100 pM, read-out: Ki (CRF-1R)

| Ki [1] [nM] | SMILES | Ki [nM] |
| --- | --- | --- |
| < 1000 | CCCN(Cc1ccccc1)Cc1c(C(F)(F)F)nc2n1CCCN2c1c(C)cc(C)cc1Cl [Example 130, Benzyl-[8-(2-chloro-4,6-dimethyl-phenyl)-2-trifluoromethyl-5,6,7,8-tetrahydro-imidazo[1,2-a]pyrimidin-3-ylmethyl]-propyl-amine] | – |
| < 100 | C=CCN(CCC)Cc1c(C(F)(F)F)nc2n1CCCN2c1c(C)cc(C)cc1Cl [Example 131, Allyl-[8-(2-chloro-4,6-dimethyl-phenyl)-2-trifluoromethyl-5,6,7,8-tetrahydro-imidazo[1,2-a]pyrimidin-3-ylmethyl]-propyl-amine] | – |
| < 1000 | CCCN(Cc1ccc(F)cc1)Cc1c(C(F)(F)F)nc2n1CCCN2c1c(C)cc(C)cc1Cl [Example 132, [8-(2-Chloro-4,6-dimethyl-phenyl)-2-trifluoromethyl-5,6,7,8-tetrahydro-imidazo[1,2-a]pyrimidin-3-ylmethyl]-(4-fluoro-benzyl)-propyl-amine] | – |
| < 1000 | Cc1cc(C)c(N2CCCn3c2nc(C(F)(F)F)c3CN(CCC(F)(F)F)Cc2cccc(F)c2)c(Cl)c1 [Example 133, [8-(2-Chloro-4,6-dimethyl-phenyl)-2-trifluoromethyl-5,6,7,8-tetrahydro-imidazo[1,2-a]pyrimidin-3-ylmethyl]-(3-fluoro-benzyl)-(3,3,3-trifluoro-propyl)-amine] | – |
| < 1000 | CCCN(Cc1cccc(F)c1)Cc1c(C(F)(F)F)nc2n1CCCN2c1c(C)cc(C)cc1Cl [Example 134, [8-(2-Chloro-4,6-dimethyl-phenyl)-2-trifluoromethyl-5,6,7,8-tetrahydro-imidazo[1,2-a]pyrimidin-3-ylmethyl]-(3-fluoro-benzyl)-propyl-amine] | – |
| < 100 | Cc1cc(C)c(N2CCCn3c2nc(C(F)(F)F)c3CN(CC2CC2)CC(F)(F)F)c(Cl)c1 [Example 135, [8-(2-Chloro-4,6-dimethyl-phenyl)-2-trifluoromethyl-5,6,7,8-tetrahydro-imidazo[1,2-a]pyrimidin-3-ylmethyl]-cyclopropylmethyl-(2,2,2-trifluoroethyl)-amine] | – |
| < 1000 | CCN(Cc1c(C(F)(F)F)nc2n1CCCN2c1c(C)cc(C)cc1Cl)CC1CCC1 [Example 137, [8-(2-Chloro-4,6-dimethyl-phenyl)-2-trifluoromethyl-5,6,7,8-tetrahydro-imidazo[1,2-a]pyrimidin-3-ylmethyl]-cyclobutylmethyl-ethyl-amine] | – |
| < 100 | Cc1cc(C)c(N2CCCn3c2nc(C(F)(F)F)c3CN2CCCC2Cc2ccccc2)c(Cl)c1 (stereo not shown) [Example 138, 3-(2-Benzyl-pyrrolidin-1-ylmethyl)-8-(2-chloro-4,6-dimethyl-phenyl)-2-trifluoromethyl-5,6,7,8-tetrahydro-imidazo[1,2-a]pyrimidine] | – |
| < 10000 | CCCN(CC1CC1)C(=O)c1c(C)nc2n(-c3c(C)cc(C)cc3C)c3ccc(F)cc3n12 [Example 139, 5-Fluoro-2-methyl-8-(2,4,6-trimethyl-phenyl)-8H-1,3a,8-triaza-cyclopenta[α]indene-3-carboxylic acid cyclopropylmethyl-propyl-amide] | – |
| < 1000 | CCCN(CC1CC1)C(=O)c1c(C)nc2n(-c3c(C)cc(C)cc3C)c3ccccc3n12 [Example 140, 2-Methyl-8-(2,4,6-trimethyl-phenyl)-8H-1,3a,8-triaza-cyclopenta[α]indene-3-carboxylic acid cyclopropylmethyl-propyl-amide] | – |
| < 1000 | CCCN(CC1CC1)C(=O)c1c(CC)nc2n(-c3c(C)cc(C)cc3C)c3ccccc3n12 [Example 141, 2-Ethyl-8-(2,4,6-trimethyl-phenyl)-8H-1,3a,8-triaza-cyclopenta[a]indene-3-carboxylic acid cyclopropylmethyl-propyl-amide] | – |
| < 10000 | CCCN(CC1CC1)C(=O)c1c(C(F)(F)F)nc2n(-c3c(C)cc(C)cc3C)c3ccccc3n12 [Example 142, 2-trifluoromethyl-8-(2,4,6-trimethylphenyl)-8H-1,3a,8-triaza-cyclopenta[a]indene-3-carboxylic acid cyclopropylmethyl-propyl-amide] | – |
| < 10000 | CCCN(CC1CC1)C(=O)c1c(C)nc2n(-c3ccc(Cl)cc3Cl)c3ccccc3n12 [Example 143, 8-(2,4-Dichloro-phenyl)-2-methyl-8H-1,3a,8-triaza-cyclopenta[a]indene-3-carboxylic acid cyclopropylmethyl-propyl-amide] | – |
| < 100 | CCCN(CC1CC1)C(=O)c1c(CC)nc2n(-c3c(C)cc(C)cc3C)c3ccc(F)cc3n12 [Example 144, 2-Ethyl-5-fluoro-8-(2,4,6-trimethyl-phenyl)-8H-1,3a,8-triaza-cyclopenta[a]indene-3-carboxylic acid cyclopropylmethyl-propyl-amide] | – |
| < 100 | CCCN(Cc1c(C)nc2n(-c3c(C)cc(C)cc3C)c3ccc(F)cc3n12)CC1CC1 [Example 145, Cyclopropylmethyl-[5-fluoro-2-methyl-8-(2,4,6-trimethyl-phenyl)-8H-1,3a,8-triaza-cyclopenta[a]inden-3-ylmethyl]-propyl-amine] | – |
| < 100 | CCCN(Cc1c(C)nc2n(-c3c(C)cc(C)cc3C)c3ccccc3n12)CC1CC1 [Example 146, Cyclopropylmethyl-[2-methyl-8-(2,4,6-trimethyl-phenyl)-8H-1,3a,8-triaza-cyclopenta[α]inden-3-ylmethyl]-propyl-amine] | – |
| < 100 | CCCN(Cc1c(CC)nc2n(-c3c(C)cc(C)cc3C)c3ccccc3n12)CC1CC1 [Example 147, Cyclopropylmethyl-[2-ethyl-8-(2,4,6-trimethyl-phenyl)-8H-1,3a,8-triaza-cyclopenta[a]inden-3-ylmethyl]-propyl-amine] | – |
| < 100 | CCCN(Cc1c(C(F)(F)F)nc2n(-c3c(C)cc(C)cc3C)c3ccccc3n12)CC1CC1 [Example 148, Cyclopropylmethyl-propyl-[2-trifluoromethyl-8-(2,4,6-trimethyl-phenyl)-8H-1,3a,8-triaza-cyclopenta[α]inden-3-ylmethyl]-amine] | – |
| < 1000 | CCCN(Cc1c(CC)nc2n(-c3c(C)cc(C)cc3C)c3ccc(F)cc3n12)CC1CC1 [Example 149, Cyclopropylmethyl-[2-ethyl-5-fluoro-8-(2,4,6-trimethyl-phenyl)-8H-1,3a,8-triaza-cyclopenta[α]inden-3-ylmethyl]-propyl-amine] | – |
| < 100 | Cc1cc(C)c(-n2c3ccccc3n3c(CN(CC4CC4)CC(F)(F)F)c(C(F)(F)F)nc23)c(C)c1 [Example 150] | – |
| < 100 | Cc1cc(C)c(-n2c3ccccc3n3c(CN(CC4CC4)CC4CC4)c(C(F)(F)F)nc23)c(C)c1 [Example 151, Bis-cyclopropylmethyl-[2-trifluoromethyl-8-(2,4,6-trimethyl-phenyl)-8H-1,3a,8-triaza-cyclopenta[α]inden-3-ylmethyl]-amine] | – |
| < 100 | Cc1cc(C)c(-n2c3ccccc3n3c(CN(CCC(F)(F)F)CC4CC4)c(C(F)(F)F)nc23)c(C)c1 [Example 152, Cyclopropylmethyl-[2-trifluoromethyl-8-(2,4,6-trimethyl-phenyl)-8H-1,3a,8-triaza-cyclopenta[α]inden-3-ylmethyl]-(3,3,3-trifluoro-propyl)-amine] | – |
| < 100 | CCCN(Cc1c(C(F)(F)F)nc2n(-c3c(C)cc(C)cc3C)c3ccccc3n12)CC1CCC1 [Example 153, Cyclobutylmethyl-propyl-[2-trifluoromethyl-8-(2,4,6-trimethyl-phenyl)-8H-1,3a,8-triaza-cyclopenta[α]inden-3-ylmethyl]-amine] | – |
| < 100 | CCN(Cc1c(C(F)(F)F)nc2n(-c3c(C)cc(C)cc3C)c3ccccc3n12)CC1CC1 [Example 154, Cyclopropylmethyl-ethyl-[2-trifluoromethyl-8-(2,4,6-trimethyl-phenyl)-8H-1,3a,8-triaza-cyclopenta[α]inden-3-ylmethyl]-amine] | – |
| – | Cc1cc(C)c(-n2c3ccccc3n3c(CN(CC4CC4)CC(F)(F)C(F)(F)F)c(C(F)(F)F)nc23)c(C)c1 [Example 155, Cyclopropylmethyl-(2,2,3,3,3-pentafluoro-propyl)-[2-trifluoromethyl-8-(2,4,6-trimethyl-phenyl)-8H-1,3a,8-triaza-cyclopenta[α]inden-3-ylmethyl]-amine] | < 100 |
| < 100 | Cc1cc(C)c(-n2c3ccccc3n3c(CN(CC4CCC4)CC(F)(F)F)c(C(F)(F)F)nc23)c(C)c1 [Example 156, Cyclobutylmethyl-(2,2,2-trifluoro-ethyl)-[2-trifluoromethyl-8-(2,4,6-trimethyl-phenyl)-8H-1,3a,8-triaza-cyclopenta[α]inden-3-ylmethyl]-amine] | – |
| < 100 | CCCN(CCC(F)(F)F)Cc1c(C(F)(F)F)nc2n(-c3c(C)cc(C)cc3C)c3ccccc3n12 [Example 157, Propyl-[2-trifluoromethyl-8-(2,4,6-trimethyl-phenyl)-8H-1,3a,8-triaza-cyclopenta[α]inden-3-ylmethyl]-(3,3,3-trifluoro-propyl)-amine] | – |
| < 100 | CCCN(Cc1c(C(F)(F)F)nc2n(-c3c(C)cc(C)cc3C)c3ccccc3n12)CC(F)(F)C(F)(F)F [Example 158, (2,2,3,3,3-Pentafluoro-propyl)-propyl-[2-trifluoromethyl-8-(2,4,6-trimethyl-phenyl)-8H-1,3a,8-triaza-cyclopenta[α]inden-3-ylmethyl]-amine] | – |

Reference: US7125990B2, “Imidazolyl derivatives as corticotropin releasing factor inhibitors” (Bristol-Myers Squibb COmpany, priority 2001, dated 2006)
